Measurements as given in US20240041986A1, “METHODS AND COMPOSITIONS FOR THE TREATMENT AND PREVENTION OF TYPE 1 DIABETES” (Dr. Mary Morris & Associates, LLC, priority 2020, published 2024).

Assays:
Assay type in all cases: in vivo, mouse
anti-insulin antibodies = assay: Anti-insulin antibody ELISA of serum from sublingually treated NOD mice
Protocol: Autoantibody titer assay. To detect anti-insulin antibodies 96-well ELISA plates were coated with 1 μg/well of Humulin® overnight at 4° C. and were blocked with 1% BSA in PBS. Sera were divided into two equal aliquots that were incubated with or without 10 μg/ml Humulin® on ice for 1 h. The sera were then added to Humulin® coated plates for incubation overnight at 4° C. After extensive washes, the plates were incubated with HRP-conjugated goat anti-mouse IgG The assay is described in Wan et al., J Exp Med. 2016 May 30; 213(6): 967-978.
Five-week old female NOD mice were randomly assigned to two groups: (1) control group (50% PBS/glycerin); and (2) insulin-related peptide treatment (Humulin® insulin) started at six weeks of age. Mice in the treatment group (2) were sublingually administered 87 μg of Humulin® in 50% glycerin solution twice per day, five days per week, up to 30 weeks of age. Serum samples were collected from control and Humulin® SLIT treated NOD mice at 14 weeks of age and assessed for levels of anti-insulin antibody titer (i.e., after sublingual administration of Humulin® for 8 weeks) and stored at −80 C until tested for anti-insulin antibodies in the ELISA described above. The level of anti-insulin antibodies in the samples was determined by ELISA using the assay described in Wan et al., J Exp Med. 2016 May 30; 213(6): 967-978 and the results are shown in FIG. 2. […]

C-peptide = assay: Serum C-peptide ELISA (ALPCO) in sublingually treated NOD mice; conditions: NOD mice fasted overnight, Humulin started at 5 weeks of age, serum at 6 and 19 weeks of age (FIG. 5)
Protocol: Serum C-peptide assay. The mouse C-peptide ELISA (ALPCO), which quantifies C-peptide protein products of mouse I and mouse II proinsulin genes, was used. Briefly, mice are fasted overnight and blood is collected by inserting a needle into the submandibular vein and collecting ˜0.2 mL of blood. The blood is centrifuged for 10 minutes at 3000×g in a refrigerated centrifuge, and serum is collected and stored −80° C. The ALPCO C-peptide ELISA is a commercially available FDA Registered For In Vitro Diagnostic Use tool for the quantification of […] C-peptide in serum and plasma samples.
Female NOD mice were randomly assigned to two groups according to Example 3. C-peptide levels in serum were determined by ALPCO C-peptide ELISA from serum samples collected at 6 and 19 weeks of age in mice that were fasted overnight.

NOD mice = assay: Incidence and time to onset of Type 1 diabetes (hyperglycemia, blood glucose above 300 mg/dL) in NOD mice after sublingual treatment; conditions: for Median survival: control 21.00; for Median Survival (i.e., time to Type 1 diabetes onset): sublingual 87 μg Humulin, control 21 weeks
Protocol: Sublingual formulation. A commercial high dose Humulin® insulin solution (Humulin® R U-500) containing 500 units of insulin per mL is mixed with an additional equal volume (1:1 (vol:vol)) 100% glycerin. Each dose contains 10 μL of the Humulin®-glycerin solution, which contains 2.5 units (approximately 87 micrograms) of insulin in a solution having a final concentration of ˜52 vol. % glycerin.
NOD mice. Non-obese diabetic (NOD) mice, as described by Makino (Adv. Immunol. 51:285-322 (1992)), are used in the studies described herein. NOD mice provide a widely accepted animal model for the spontaneous development of Type 1 diabetes. NOD mice develop insulitis as a result of leukocyte infiltration into the pancreatic islet, which in turn leads to the destruction of pancreatic islets and a Type 1 diabetic phenotype.
Five-week old female NOD mice were randomly assigned to three groups: (1) control group (1:1 glycerin/phosphate buffered saline (PBS)); (2) insulin-related peptide treatment (Humulin®) started at six weeks of age; or (3) insulin-related peptide treatment (Humulin®) started at ten weeks of age. Mice in the treatment groups (2) and (3) were sublingually administered 2.5 units/87 μg of Humulin® R insulin (10 μL of solution) twice per day […] from age 5 weeks 5 until 8 weeks of age and then once per day, five days per week up to 30 weeks of age. Blood glucose measurements were taken once per week up to 20 weeks of age, and then twice per week thereafter. Mice were classified as diabetic after three consecutive blood glucose readings above 300 mg/dL (hyperglycemic).
Female NOD mice were randomly assigned to two groups: (1) control group (50% glycerin/phosphate buffered saline (PBS)); or (2) insulin-related peptide treatment (Humulin® in 50% glycerin solution; Humulin® sublingual immunotherapy (“Humulin SLIT”)) started at five weeks of age. Mice in the treatment group (2) were sublingually administered 87 μg of Humulin® once per day, five days per week starting at five weeks of age up to 30 weeks of age. Blood glucose measurements were taken once per week up to 13 weeks of age, and then twice per week thereafter. Mice were classified as diabetic after three consecutive blood glucose readings above 300 mg/dL (hyperglycemic). […]

[1] = Humulin started at 5 weeks of age (FIG. 3)
[2] = Humulin started at 5 weeks of age vs control (FIG. 3)
[3] = Humulin started at 6 weeks of age (FIG. 1A)
[4] = Humulin started at 6 weeks of age vs control (FIG. 1A)
[5] = Humulin started at 10 weeks of age (FIG. 1B)
[6] = Humulin started at 10 weeks of age vs control (FIG. 1B)
[7] = combined FIG. 1A and FIG. 3 (FIG. 6)
[8] = combined FIG. 1A and FIG. 3 vs control (FIG. 6)

For “Humulin: commercial recombinant human insulin solution (Humulin® R U-500) mixed 1:1 with glycerin, sublingual formulation, 87 μg per 10 μL dose”, the “development of anti-insulin antibodies as compared to the control group” value (anti-insulin antibodies; 87 μg Humulin started at five weeks of age, serum at 19 weeks of age (FIG. 4)) was “significantly reduced”, the “development of anti-insulin antibodies as compared to the control group” value (anti-insulin antibodies; 87 μg Humulin started at six weeks of age, serum at 14 weeks of age (FIG. 2)) was “significantly reduced” and the “serum C-peptide levels as compared to untreated control NOD mice” value (C-peptide) was “either a maintenance or enhancement”. For the same substance, the “Ratio of median survival (Control / Humulin)” value (from here on “Ratio … (Control / Humulin)”) (NOD mice; [1]) was 0.7119, the “Reciprocal of ratio of median survival” value (NOD mice; [1]) was 1.405 and the “Are the survival curves sig different? Gehan-Breslow-Wilcoxon test” value (NOD mice; [2]) was “Yes”. The “Are the survival curves sig different? Log-rank (Mantel-Cox) test” value (NOD mice; [2]) was “Yes”, the “Ratio … (Control / Humulin)” value (NOD mice; [3]) was 0.778 and the “Reciprocal of ratio of median survival” value (NOD mice; [3]) was 1.29. The “Are the survival curves significantly different? Gehan-Breslow-Wilcoxon test” value (NOD mice; [4]) was “Yes”, the “Are the survival curves significantly different? Log-rank (Mantel-Cox) test” value (NOD mice; [4]) was “Yes” and the “Ratio … (Control / Humulin)” value (NOD mice; [5]) was 0.8750. The “Reciprocal of ratio of median survival” value (NOD mice; [5]) was 1.14, the “Are the survival curves significantly different? Gehan-Breslow-Wilcoxon test” value (NOD mice; [6]) was “No” and the “Are the survival curves significantly different? Log-rank (Mantel-Cox) test” value (NOD mice; [6]) was “No”. For the same substance, the “incidence (% diabetic) and onset time (weeks) of Type 1 diabetes as compared to the control group” value (NOD mice; NOD mice, sublingual Humulin started at five weeks of age (FIG. 3)) was “reduced”, the “incidence (% T1D Onset) and onset time (weeks) of Type 1 diabetes as compared to the control group” value (NOD mice; NOD mice, sublingual Humulin started at six weeks of age (FIG. 1A)) was “significantly reduced” and the “Ratio … (Control / Humulin)” value (NOD mice; [7]) was 0.8077. The “Reciprocal of ratio of median survival” value (NOD mice; [7]) was 1.238, the “Are the survival curves sig different? Gehan-Breslow-Wilcoxon test” value (NOD mice; [8]) was “Yes” and the “Are the survival curves sig different? Log-rank (Mantel-Cox) test” value (NOD mice; [8]) was “Yes”. For the same substance, the Median survival (NOD mice; combined results of FIG. 1A and FIG. 3, Humulin started at 5 or 6 weeks of age (FIG. 6, time in Weeks)) was 26.00, the Median survival (NOD mice; female NOD mice, sublingual 87 μg Humulin once per day, five days per week, started at 5 weeks of age (FIG. 3, time in Weeks)) was 29.50 and the “Median Survival (i.e., time to Type 1 diabetes onset)” value (NOD mice; female NOD mice, started at 6 weeks of age (FIG. 1A)) was 27 weeks. For the same substance, the “Median Survival (i.e., time to Type 1 diabetes onset)” value (NOD mice; female NOD mice, started at 10 weeks of age (FIG. 1B)) was 24 weeks.
